The text below walks through data of ChEMBL document CHEMBL1201862, “PubChem BioAssay data set” (2004).

Among the test systems are NCI-H460; OVCAR-8; CAKI-1; SK-MEL-2; UACC-62; A549; SNB-75; M14; SF-295; SN12C; UACC-257; SW-620; HCT-15; TK-10; UO-31; U-251; MOLT-4; MDA-MB-231; MDA-MB-435; CCRF-CEM.
Common to all, as to assay: NCI tumour cell line growth inhibition, 48 h

Each structure is given as a SMILES string.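 Interpolation was linear, between the two tested concentrations surrounding the appropriate level; five concentrations were tested over 48 hours in 96-well plates. Abbreviation: GI50, concentration required for 50% inhibition of growth.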 Calls of active or inactive are those of the source. Cut-off read from the data, not from the text of the source: active = GI50 up to about 1.1 µM and inactive = higher. Where only a bound is given, the exact number is not on record here.

Consider `O=C(NC/C(Cl)=C/Cl)Nc1c2ccccc2nc2ccccc12`, for which the GI50 is 60.3 µM (inactive) with NCI-H460; 56.4 µM (inactive) in the experiment on OVCAR-8; > 100 µM (inactive) in the experiment on CAKI-1; > 100 µM (inactive) in the experiment with SK-MEL-2; > 100 µM (inactive) in the experiment with UACC-62; > 100 µM (inactive) in the experiment with A549. In addition, the GI50 with SNB-75 is > 100 µM (inactive); in the experiment with M14 it was 84.5 µM (inactive); in the experiment with SF-295, > 100 µM (inactive); in the experiment with SN12C, 69.7 µM (inactive); with UACC-257 it was 78.9 µM (inactive); in the experiment with SW-620, > 100 µM (inactive). Also, the GI50 is 59 µM in the experiment with HCT-15; > 100 µM (inactive) in the experiment with TK-10; > 100 µM (inactive) in the experiment with UO-31; 70.8 µM (inactive) in the experiment on U-251; 29.3 µM (inactive) with MOLT-4; 22 µM (inactive) in the experiment with MDA-MB-231. Besides, the GI50 with MDA-MB-435 is > 100 µM (inactive).
For the compound `COc1ccc([C@@]23OC[C@@H]4[C@@H](OC[C@@H]42)c2cc(OC)c(OC)cc23)cc1OC`, the GI50 in the experiment on NCI-H460, with CAKI-1, with SK-MEL-2, in the experiment with UACC-62, with A549 and in the experiment on SNB-75 was > 100 µM (inactive) in each case. The GI50 in the experiment on M14 is > 100 µM (inactive); in the experiment on SF-295 it was > 100 µM (inactive); with SW-620 it was > 100 µM (inactive); with HCT-15, greater than 100 µM; with TK-10, > 100 µM (inactive); with UO-31, > 100 µM (inactive). The GI50 with U-251, with MOLT-4, with MDA-MB-231 and with MDA-MB-435 was > 100 µM (inactive) each time.
Consider `COc1ccc2c(c1)CN1C(=N2)CSC1c1c(Cl)cccc1[N+](=O)[O-]` (configuration not stated), for which the GI50 in the experiment on NCI-H460 is 14.7 µM (inactive); with OVCAR-8, 30.1 µM (inactive); with CAKI-1 it was 23.1 µM (inactive); with SK-MEL-2 it was 17.5 µM (inactive); with UACC-62 it was 20 µM (inactive); in the experiment with A549 it was 31.9 µM (inactive). In addition, the GI50 in the experiment with SNB-75 was 27.8 µM (inactive); in the experiment on M14, 18.3 µM (inactive); in the experiment with SF-295 it was 21.8 µM (inactive); in the experiment with SN12C it was 17.5 µM (inactive); in the experiment on UACC-257, 17.2 µM (inactive); in the experiment on SW-620 it was 15.6 µM (inactive). For the same compound, the GI50 with HCT-15 is 16.6 µM; in the experiment on TK-10, 28.2 µM (inactive); in the experiment with UO-31 it was 21.3 µM (inactive); in the experiment with U-251 it was 18.7 µM (inactive); in the experiment with MOLT-4, 12.6 µM (inactive); in the experiment on MDA-MB-231, 16.4 µM (inactive). The GI50 in the experiment on MDA-MB-435 is 20.1 µM (inactive).
Take `O=C1c2ccccc2/C=C\C(c2ccccc2)=N/N1c1ccccc1Cl`: the GI50 in the experiment with NCI-H460 is 28.6 µM (inactive); in the experiment with OVCAR-8, 27.4 µM (inactive); in the experiment with CAKI-1, 16.9 µM (inactive); with SK-MEL-2, 60 µM (inactive); with A549, 17.1 µM (inactive); with SNB-75 it was 25.9 µM (inactive). The GI50 in the experiment on M14 was 21.9 µM (inactive); with SF-295, 26.1 µM (inactive); in the experiment with SN12C, 23 µM (inactive); in the experiment with UACC-257 it was 26.8 µM (inactive); with SW-620 it was 20.1 µM (inactive); in the experiment on HCT-15, 29.5 µM. For the same compound, the GI50 in the experiment with TK-10 is 42.8 µM (inactive); with UO-31, 32.5 µM (inactive); with CCRF-CEM, 34.5 µM (inactive); with U-251 it was 21.7 µM (inactive); in the experiment on MOLT-4, 15.3 µM (inactive); in the experiment on MDA-MB-231, 11.9 µM (inactive). For the same compound, the GI50 with MDA-MB-435 is 3.44 µM (inactive).
As to `Cn1c(SCc2ccc([N+](=O)[O-])cc2)nnc1C12CC3CC(CC(C3)C1)C2`, the GI50 in the experiment on NCI-H460, in the experiment with OVCAR-8, in the experiment on CAKI-1, with SK-MEL-2, with UACC-62 and in the experiment on A549 was > 10 µM (inactive) throughout. Besides, the GI50 was 4.66 µM (inactive) in the experiment with SNB-75; > 10 µM (inactive) with M14; > 10 µM (inactive) in the experiment with SF-295; > 10 µM (inactive) with SN12C; > 10 µM (inactive) in the experiment on SW-620; greater than 10 µM with HCT-15. Besides, the GI50 in the experiment with UO-31, with CCRF-CEM, with U-251, in the experiment with MOLT-4, in the experiment with MDA-MB-231 and with MDA-MB-435 was > 10 µM (inactive) throughout.
For the compound `Nc1nc(N)c2ncn(-c3ccc(Cl)c(Cl)c3)c2n1`, the GI50 in the experiment with OVCAR-8 was 24.5 µM (inactive); in the experiment on CAKI-1, 16.9 µM (inactive); with SK-MEL-2, 12.4 µM (inactive); in the experiment with UACC-62, 10.1 µM (inactive); in the experiment on A549, 30.8 µM (inactive); with SNB-75, < 0.01 µM (active). For the same compound, the GI50 was 42.7 µM (inactive) in the experiment with M14; 28.1 µM (inactive) in the experiment with SF-295; 15.8 µM (inactive) with SN12C; 27.4 µM (inactive) in the experiment on UACC-257; 42.4 µM (inactive) in the experiment on SW-620; 26 µM with HCT-15. Also, the GI50 with TK-10 was 16.7 µM (inactive); in the experiment on UO-31, 18.5 µM (inactive); with CCRF-CEM, 3.71 µM (inactive); in the experiment on U-251, 25.9 µM (inactive); in the experiment with MOLT-4 it was 12.2 µM (inactive); in the experiment on MDA-MB-231 it was 23.1 µM (inactive). Further, in the experiment on MDA-MB-435, the GI50 is 33.7 µM (inactive).
With `C=C[C@@]1(C)CC[C@@H]2[C@@]3(C1)O[C@H]3CC1[C@](C)(C(=O)OC)CCC[C@@]12C` (some centres not stated), the GI50 in the experiment with NCI-H460 was 16.4 µM (inactive); with OVCAR-8 it was 21.3 µM (inactive); with CAKI-1, 33.5 µM (inactive); in the experiment with SK-MEL-2, 18.9 µM (inactive); with UACC-62, 27 µM (inactive); in the experiment on A549, 23.1 µM (inactive). Besides, the GI50 was 37.8 µM (inactive) in the experiment on SNB-75; 19.6 µM (inactive) in the experiment with M14; 15 µM (inactive) with SF-295; 19.3 µM (inactive) with UACC-257; 23.7 µM (inactive) in the experiment with SW-620; 19.5 µM with HCT-15. In addition, the GI50 in the experiment with TK-10 was 19.1 µM (inactive); with UO-31, 17.9 µM (inactive); in the experiment on U-251 it was 21.1 µM (inactive); with MOLT-4, 20 µM (inactive); with MDA-MB-231 it was 23 µM (inactive); in the experiment on MDA-MB-435, 34 µM (inactive).
`CN(C)CCCSc1nc2ccccc2[nH]1`: the GI50 in the experiment with NCI-H460, with OVCAR-8, in the experiment on CAKI-1, with SK-MEL-2, with UACC-62 and in the experiment on A549 was > 100 µM (inactive) each time. Also, the GI50 in the experiment with SNB-75, in the experiment with M14, in the experiment on SF-295, in the experiment with SN12C, in the experiment on UACC-257 and in the experiment with SW-620 was > 100 µM (inactive) each time. Also, the GI50 in the experiment with HCT-15 was greater than 100 µM; in the experiment on TK-10 it was > 100 µM (inactive); in the experiment on UO-31 it was > 100 µM (inactive); in the experiment with U-251, > 100 µM (inactive); with MDA-MB-231, > 100 µM (inactive); with MDA-MB-435, > 100 µM (inactive).
Turning to `CC(C)Cn1cnc2c(SCc3ccc(Cl)cc3Cl)nc(N)nc21`, the GI50 with NCI-H460 is 12 µM (inactive); in the experiment on OVCAR-8, 27.7 µM (inactive); in the experiment on CAKI-1 it was 49 µM (inactive); with SK-MEL-2 it was 32.4 µM (inactive); in the experiment with UACC-62 it was 19.8 µM (inactive); in the experiment with A549, 25.1 µM (inactive). For the same compound, the GI50 is 42.8 µM (inactive) with SNB-75; 32.4 µM (inactive) in the experiment on M14; 23.3 µM (inactive) with SF-295; 47.3 µM (inactive) in the experiment with SN12C; 15.5 µM (inactive) in the experiment on UACC-257; 25.3 µM (inactive) in the experiment with SW-620. Also, the GI50 is 16 µM in the experiment with HCT-15; 23.1 µM (inactive) with TK-10; 23.3 µM (inactive) in the experiment with UO-31; 27.5 µM (inactive) in the experiment with U-251; 7.57 µM (inactive) in the experiment with MOLT-4; 39.1 µM (inactive) in the experiment on MDA-MB-231. Further, the GI50 with MDA-MB-435 is 32.3 µM (inactive).
Turning to `C/C=C1/CC(C(=O)OC)N(C(=O)OCc2ccccc2)C1=S` (configuration not stated), the GI50 with NCI-H460 is 12.3 µM (inactive); in the experiment with OVCAR-8, > 100 µM (inactive); in the experiment on CAKI-1, > 100 µM (inactive); in the experiment on SK-MEL-2, > 100 µM (inactive); with UACC-62, > 100 µM (inactive); in the experiment with A549 it was > 100 µM (inactive). The GI50 with SNB-75 is > 100 µM (inactive); with M14, > 100 µM (inactive); in the experiment on SF-295, > 100 µM (inactive); with UACC-257, > 100 µM (inactive); with SW-620, > 100 µM (inactive); in the experiment on HCT-15 it was greater than 100 µM. For the same compound, the GI50 in the experiment with TK-10, in the experiment with UO-31, in the experiment with U-251, in the experiment on MOLT-4, in the experiment on MDA-MB-231 and in the experiment with MDA-MB-435 was > 100 µM (inactive) throughout.
With `Cc1nnc2ccccc2c1O`, the GI50 with NCI-H460, in the experiment on OVCAR-8, in the experiment on CAKI-1, in the experiment on SK-MEL-2, in the experiment with UACC-62 and with A549 was > 100 µM (inactive) in each case. The GI50 with SNB-75, in the experiment with M14, in the experiment on SF-295, in the experiment with SN12C, with UACC-257 and with SW-620 was > 100 µM (inactive) each time. Also, the GI50 in the experiment with HCT-15 is greater than 100 µM; in the experiment on TK-10, > 100 µM (inactive); with UO-31, > 100 µM (inactive); in the experiment on U-251, > 100 µM (inactive); in the experiment on MOLT-4, 6.34 µM (inactive); in the experiment with MDA-MB-231, > 100 µM (inactive). The GI50 in the experiment with MDA-MB-435 is > 100 µM (inactive).
